# What was measured:
# Type in all cases: physicochemical
# [1] = Elution test of drug from cylindrical molded body (paddle, UV absorbance); conditions: ethenzamide; molded body 50 MPa; paddle 100 rpm, 900 mL Pharmacopeia I liquid
# Procedure: Cellulose particles A were used. A commercially available ibuprofen (an active component indicated as being almost completely insoluble in water according to Japanese Pharmacopeia 14) was dissolved in polyethylene glycol (Macrogol 400 from Sanyo Kasei Co., Ltd.) at a proportion of 1:5, and then diluted by 10 with ethanol. This was added to the cellulose particles A to result in 10% by weight. The mixture was stirred in a die. A die (from KIKUSUI SEISAKUSHO LTD, made with SUS 2, 3) was filled with 0.2 g of the obtained powder, and a circular flat punch (from KIKUSUI SEISAKUSHO LTD, made with SUS 2, 3) with a diameter of 0.8 cm was used to apply compression until the pressure reached 100 MPa (PCM-1A (Commercial Name) from AIKOH ENGINEERING CO., LTD. was used with a compression rate of 1 cm/min). The cylindrical molded body was released after the target pressure was maintained for 10 seconds. Fluid component effusion on the surface of the molded body was observed, drug elution from the cylindrical molded body (elution tests were conducted with a JASCO Corporation ultraviolet absorption spectrometer at paddle speed 100 rpm and 900 mL of Pharmacopeia I liquid, in which fluid absorbance was measured and the elution rate was calculated 3 minutes after) and disintegration time of the cylindrical molded bodies was measured. […]
# [2] = Repose angle (Sugihara type device); conditions: low fluidity component model without cellulose
# Procedure: Using a Sugihara type repose angle measuring device (slit size: depth 10 mm×width 50 mm×height 140 mm, a protractor was placed at the position of 50 mm width), the dynamic self-fluidity was measured when cellulose powder was dropped to the slit at 3 g/minute using a quantitative feeder. The angle between the bottom of the device and the top layer of the cellulose powder is the repose angle.
# [3] = Reactivity to a drug: aspirin decomposition rate after storage mixed with cellulose; conditions: 60° C., two weeks, closed vial
# Procedure: (12) Reactivity to a Drug
# Aspirin (Japanese Pharmacopeia crystalline aspirin was treated with a small grinder φ0.5 mm, with 1 pass treatment) and each cellulose sample was mixed at 5/5 (total 0.5 g) in dry conditions and then placed in a glass sample vial and mixed. The vial was stored in an oven (Made by Tabai Espec Corp. Perfect Oven (Commercial Name)) with the cap tightly closed (at 60° C.) for two weeks and then the decomposition rate was measured. Ferric (III) […] sulfate 12 hydrate 8 g was placed in a 100 ml measuring flask, mixed with pure water to bring the volume up to 100 ml to make a coloring test solution. 0.25 g of stored aspirin (total 0.5 g of the blended powder) was introduced to a 50 ml measuring flask, mixed with ethanol to bring the volume up to 50 ml and the mixture was shaken for 5 minutes. Thus obtained ethanol solution was filtered, the filtrate was transferred to a 100 ml measuring flask and ethanol was added to bring the volume up to 100 ml. One milliliter of this ethanol solution and 1 ml of the coloring test solution described above were introduced to a 50 ml measuring flask, mixed with pure water to bring the volume up to 50 ml and the absorption was measured at the wavelength of 532 nm using a UV absorption meter (made by JASCO Corporation). The decomposition rate was calculated from the following formula. […]
smiles,measurement,setting,value
"CCOc1ccccc1C(N)=O [Comparative Example 76, ethenzamide]",Elution rate after 1 hour,[1],9%
"CC(=O)Nc1ccc(O)cc1 [Component model C, Acetaminophen]",Repose angle Before the addition of cellulose,[2],55 °
"CC(=O)Oc1ccccc1C(=O)O [aspirin, Aspirin]",aspirin decomposition rate,[3],15%
